One data set relates to β-adrenergic receptor. Put plainly: Left ventricular [3H]CGP-12177 saturation binding after treatment. Details: species or system beagle dogs. To be noted: 10 mg/kg/day. The method, then:
Ventricles were homogenized in 50 mM Tris-HCl, 5 mM Na2EDTA buffer (pH 7.4 at 4° C.) using a Polytron P-10 tissue disrupter (setting 10, 2×15 second bursts). Homogenates were centrifuged at 500×g for 10 minutes and the supernatants stored on ice. The pellets were washed by resuspension and centrifugation at 500×g and the supernatants combined. The combined supernatants were centrifuged at 48,000×g for 20 minutes. The pellets were washed by resuspension and centrifugation once in homogenizing buffer and twice in 50 mM Tris-HCl, 0.5 mM EDTA buffer (pH 7.4 at 4° C.). Membranes were stored at −70° C. until required. Saturation experiments were conducted using [^3H] CGP-12177 in buffer containing 50 mM Tris-HCl, 0.5 mM EDTA (pH 7.4 at 32° C.). Non-specific binding was defined by 10 uM isoproterenol. Total bound, non-specific bound and total count tubes were set up for eight concentrations of [^3H] […] Aquasol scintillation fluid was added to each vial and radioactivity determined by liquid scintillation counting. Saturation binding isotherms were analyzed after first converting total ligand concentrations to free ligand concentrations (total−bound=free). […] Tissue catecholamine levels were analyzed by comparing nepicastat-treated groups with the placebo (control) treated groups. […] Additionally, a linear orthogonal contrast was calculated for all three doses within the context of a one-way ANOVA. […]

A further data set has as its system mice. Kind of data set: Acute toxicity study, single oral doses. As to conditions: single oral doses of 250, 1000, or 2500 mg/kg. The data set is classed as in vivo. The method, then: Dose selection was based on an acute toxicity study in which mice were administered single oral doses of 250, 1000, or 2500 mg/kg of Nepicastat.

In the case of `Cl.NCc1c[nH]c(=S)n1[C@H]1CCc2c(F)cc(F)cc2C1` [nepicastat, (S)-5-Aminomethyl-1-(5,7-difluoro-1,2,3,4-tetrahydronaphth-2-yl)-2,3-dihydro-2-thioxo-1H-imidazole hydrochloride], in the data set with β-adrenergic receptor, the “β-adrenergic receptor binding, treated vs vehicle left ventricular samples” value is “no difference”. In addition, in the data set on mice, the acute toxicity result is “Clinical signs of toxicity and death occurred at 1000 and 2500 mg/kg”.

The values are drawn from patent US20090054403A1, “Treatment of Post-Traumatic Stress Disorder” (priority 2007, published 2009).
